Source: PMC3997423, “Identification and HLA-Tetramer-Validation of Human CD4^+ and CD8^+ T Cell Responses against HCMV Proteins IE1 and IE2” (PLoS ONE, 2014)
Where no end group is shown, it is not given here.

Tests used:
HLA-DRB1*15:01 = HLA-DRB1*15:01 (Homo sapiens, UniProt P01903+P01911); test: Peptide-HLA class II binding affinity; conditions: read-out: measured affinity
Procedure: (§1) Peptide-HLA class I and II binding affinities were determined as previously described [44], [45].
(§2) Complex formation was detected using a proximity-based Luminescent Oxygen Channeling Immunoassay assay and the peptide concentration leading to half-saturation (ED50) was determined as previously described [44], [45]. Under the limited receptor concentrations used here, the ED50 reflects the affinity of the interaction.
HLA-DRB1*07:01 = HLA-DRB1*07:01 (Homo sapiens, UniProt P01903+P01911, A100R/A102G/A103Q/D57E/D86V/E43K/F76Y/K127E/L162R/M171V/P40G/Q125H/Q99D/R33Q/R42Y/R54Q/S133A/S66F/T210M/V115G/Y107V/Y59L/Y89S); test: Peptide-HLA class II binding affinity; conditions: read-out: measured affinity
Procedure: as §1, §2
HLA-DRB1*01:01 = HLA-DRB1*01:01 (Homo sapiens, UniProt P01903+P01911, A100R/D57E/F55L/F60I/F76Y/I96L/L162R/M171V/P40L/Q125E/R42F/V115G/Y59C); test: Peptide-HLA class II binding affinity; conditions: read-out: measured affinity
Procedure: as §1, §2
HLA-A*03:01 = HLA-A*03:01 (Homo sapiens, UniProt P04439); test: biochemical
Procedure: as §1, §2
HLA-B*55:01 = HLA-B*55:01 (Homo sapiens, UniProt P01889, A329T/C349S/D138N/D201E/E187T/E204Q/K202T/L119W/R155S/R180L/S121T/S35A/S48A/V127L/V306I/V36M/Y140L); test: Peptide-HLA class I binding affinity; conditions: read-out: Measured affinity
Procedure: as §1, §2
HLA-A*01:01 = HLA-A*01:01 (Homo sapiens, UniProt P04439, A114D/A174V/A182V/D101N/D185E/E176A/E190D/L180R/Q94H/R68K/S129P/T187R/V100A/V91M/W191G); test: Peptide-HLA class I binding affinity; conditions: read-out: Measured affinity
Procedure: as §1, §2
HLA-DRB1*13:01 = HLA-DRB1*13:01 (Homo sapiens, UniProt P01903+P01911, A100E/A169T/K41T/L162R/M171V/P40S/Q125H/Q178H/Q39Y/Q99D/R42S/S66N/T262R/W38E/Y61H); test: Peptide-HLA class II binding affinity; conditions: read-out: measured affinity
Procedure: as §1, §2
HLA-DRB3*01:01 = biological target: T1, HLA-DRB3*01:01 (Homo sapiens, UniProt P01903+P79483); test: Peptide-HLA class II binding affinity; conditions: recombinant HLA class II α- and β-chains refolded with graded peptide, 48 h, 18°C; LOCI; ED50; read-out: Measured affinity
T1 construct: made in house
Procedure: as §1, §2

HLA-DRB1*03:01 = HLA-DRB1*03:01 (Homo sapiens, UniProt P01903+P01911, A100K/A102G/A103R/A169T/F55Y/I96L/K41T/L162R/M171V/P40S/Q125H/Q178H/Q39Y/R42S/S66N/T106N/T262R/W38E/Y61H); test: Peptide-HLA class II binding affinity; conditions: recombinant HLA class II α- and β-chains refolded with graded peptide, 48 h, 18°C; LOCI; ED50; read-out: Measured affinity
Sequence of HLA-DRB1*03:01 (P01903 26-254 limits assumed, other chains not shown): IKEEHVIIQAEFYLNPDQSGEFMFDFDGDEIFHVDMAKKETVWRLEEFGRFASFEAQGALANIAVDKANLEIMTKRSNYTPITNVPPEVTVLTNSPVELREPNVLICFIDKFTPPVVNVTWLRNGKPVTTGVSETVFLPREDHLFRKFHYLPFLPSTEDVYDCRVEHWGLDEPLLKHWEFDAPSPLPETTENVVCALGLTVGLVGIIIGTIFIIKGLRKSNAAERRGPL
Procedure: as §1, §2
HLA-B*13:02 = HLA-B*13:02 (Homo sapiens, UniProt P01889, A65T/A93T/A95T/D138N/D201E/D98Y/E176V/E204Q/E69M/E70A/G107R/K202T/L105A/L119W/N104T/N87E/Q94N/R106L/R155S/R169L/R180L/S101N/S121T/S35A/S48T/V127L/V36M/Y140L/Y91S); test: Peptide-HLA class I binding affinity; conditions: read-out: Measured affinity
Procedure: as §1, §2

CD8^+ T cells = test: Ex vivo peptide-HLA class I tetramer staining; format: cell-based, human; conditions: peptide-C*07:02 tetramer, responding donors
Procedure: To tetramerize the resulting peptide-HLA class I monomers, Streptavidin-PE or Streptavidin-APC (Biolegend, San Diego, USA) was sequentially added over 60 min at a 1∶4 molar ratio of Streptavidin to peptide-HLA-I monomers. PBMCs were resuspended in 25 µl PE- and APC-conjugated tetramer and incubated for 20 min at RT followed by 30 min incubation with anti-CD3-Pacific blue, anti-CD4-APC/Cy7, and anti-CD8-PerCP antibody (Biolegend, San Diego, USA).
HLA-C*06:02 = HLA-C*06:02 (Homo sapiens, UniProt P10321, A176E/A330V/C350S/L171W/L180W/L218V/M285V/M309V/M331V/N104K/P208H/Q277E/Q291P/R121W/S101N/S123Y/S297R/T329A/T363A/V319A/V328M); test: Peptide-HLA class I binding affinity; conditions: read-out: Measured affinity
Procedure: as §1, §2
HLA-B*08:01 = HLA-B*08:01 (Homo sapiens, UniProt P01889, A93T/A95T/D138N/E176V/E187T/K202T/Q94N/R180D/S35A/V36M/Y33D/Y91F); test: biochemical
HLA-A*68:01 = HLA-A*68:01 (Homo sapiens, UniProt P04439, A269V/D185E/E176V/E277Q/E87N/F33Y/G231S/I121M/I166T/I218V/L180W/L300P/L318F/N151K/P208A/P217A/Q86R/R169H/T345S); test: Peptide-HLA class I binding affinity; conditions: read-out: Measured affinity
Procedure: as §1, §2
HLA-B*40:01 = HLA-B*40:01 (Homo sapiens, UniProt P01889, A65T/A93T/A95T/D138N/D98Y/E176V/E69K/N87E/Q56L/Q94N/R180L/S121R/S35A/S48T/T167S/V36M/W171L/Y33H/Y91S); test: Peptide-HLA class I binding affinity; conditions: read-out: Measured affinity
Procedure: as §1, §2

CC[C@H](C)[C@H](NC(=O)CNC(=O)[C@@H](N)CCCCN)C(=O)N[C@@H](CCC(N)=O)C(=O)N[C@H](C(=O)N[C@H](C(=O)N[C@@H](Cc1ccc(O)cc1)C(=O)N[C@H](C(=O)N[C@@H](CCCNC(=N)N)C(=O)N[C@@H](CC(N)=O)C(=O)N[C@@H](Cc1c[nH]cn1)C(=O)N[C@@H](CCC(=O)O)C(=O)N[C@H](C(=O)N[C@@H](CCCCN)C(=O)N[C@@H](CO)C(=O)O)C(C)C)[C@@H](C)O)[C@@H](C)CC)[C@@H](C)CC [IE2_408–422]
Kd (HLA-DRB1*15:01): 45 nM
Kd (HLA-DRB1*07:01): 53 nM

CSCC[C@H](NC(=O)[C@H](CC(C)C)NC(=O)[C@H](Cc1ccccc1)NC(=O)[C@@H]1CCCN1C(=O)[C@@H](NC(=O)[C@H](CO)NC(=O)[C@H](CC(C)C)NC(=O)[C@H](C)N)[C@@H](C)O)C(=O)N[C@@H](CCC(=O)O)C(=O)N[C@@H](Cc1c[nH]cn1)C(=O)N[C@H](C(=O)N[C@@H](CCSC)C(=O)N1CCC[C@H]1C(=O)N[C@H](C(=O)N[C@H](C(=O)O)[C@@H](C)O)C(C)C)[C@@H](C)O [IE2_438–452]
Kd (HLA-DRB1*01:01): 6 nM

RIKEHMLKK [IE1_99–107]
Kd (HLA-A*03:01): 542 nM

FPKTTNGCSQA [IE1_221–231]
Kd (HLA-B*55:01): 138 nM

TSDACMMTMY [IE1_290–299]
Kd (HLA-A*01:01): 9 nM

VRHRIKEHMLKKYTQ [IE1_96–110]
Kd (HLA-DRB1*13:01): 2 nM

CC[C@H](C)[C@H](NC(=O)[C@H](CCCCN)NC(=O)[C@@H](NC(=O)[C@H](CCCNC(=N)N)NC(=O)CNC(=O)[C@H](CCCNC(=N)N)NC(=O)[C@H](CCCNC(=N)N)NC(=O)[C@@H](N)[C@@H](C)O)C(C)C)C(=O)N[C@@H](CC(=O)O)C(=O)N[C@@H](CCC(=O)O)C(=O)N[C@H](C(=O)N[C@@H](CO)C(=O)N[C@@H](CCCNC(=N)N)C(=O)N[C@@H](CCSC)C(=O)N[C@@H](Cc1ccccc1)C(=O)O)C(C)C [IE2_356–370]
Kd (HLA-DRB3*01:01): 2 nM
Kd (HLA-DRB1*03:01): 9 nM

YILGADPLRV [IE1_354-363]
Kd (HLA-B*13:02): 87 nM

FLMEHTMPVTHPPEV [IE2_443–457]
Kd (HLA-DRB1*01:01): 2 nM

VKQIKVRVDMVRHRI [IE1_86–100]
Kd (HLA-DRB3*01:01): 109 nM
Kd (HLA-DRB1*03:01): 4 nM

CRVLCCYVL [IE1_309–317]
TMRI (%) (CD8^+ T cells): 0.8–8.0%

VRVDMVRHRIKEHML [IE1_91–105]
Kd (HLA-DRB1*13:01): 2 nM
Kd (HLA-DRB3*01:01): > 5000 nM
Kd (HLA-DRB1*03:01): 10 nM

QIKVRVDM [IE1_88–95]
Kd (HLA-C*06:02): 3 nM
Kd (HLA-B*08:01): 579 nM

KLGGALQAK [IE1_184–192]
Kd (HLA-A*03:01): 216 nM

QIKVRVDMV [IE1_88–96]
Kd (HLA-B*08:01): 994 nM

TTFLQTMLR [IE1_33–41/IE2_33–41]
Kd (HLA-A*68:01): 1 nM

EEAIVAYTL [IE1_381–389]
Kd (HLA-B*40:01): 13 nM

KEVNSQLSL [IE1_42–50/IE2_42–50]
Kd (HLA-B*40:01): 25 nM
